Data as given in patent US10485800B2, “Mixed lineage kinase inhibitors for HIV/AIDS therapies” (UNIVERSITY OF ROCHESTER, priority 2012, dated 2019).

Each compound was assayed against MLK3 (Homo sapiens (Human), UniProt Q16584) (assay: Radiometric filter plate MLK3 assay). Settings: 2 μM cold ATP (Km), 1 μM inactive MKK7b, twenty minute incubation; read-out: MK3 IC50.
Chain of MLK3 (Q16584 whole entry): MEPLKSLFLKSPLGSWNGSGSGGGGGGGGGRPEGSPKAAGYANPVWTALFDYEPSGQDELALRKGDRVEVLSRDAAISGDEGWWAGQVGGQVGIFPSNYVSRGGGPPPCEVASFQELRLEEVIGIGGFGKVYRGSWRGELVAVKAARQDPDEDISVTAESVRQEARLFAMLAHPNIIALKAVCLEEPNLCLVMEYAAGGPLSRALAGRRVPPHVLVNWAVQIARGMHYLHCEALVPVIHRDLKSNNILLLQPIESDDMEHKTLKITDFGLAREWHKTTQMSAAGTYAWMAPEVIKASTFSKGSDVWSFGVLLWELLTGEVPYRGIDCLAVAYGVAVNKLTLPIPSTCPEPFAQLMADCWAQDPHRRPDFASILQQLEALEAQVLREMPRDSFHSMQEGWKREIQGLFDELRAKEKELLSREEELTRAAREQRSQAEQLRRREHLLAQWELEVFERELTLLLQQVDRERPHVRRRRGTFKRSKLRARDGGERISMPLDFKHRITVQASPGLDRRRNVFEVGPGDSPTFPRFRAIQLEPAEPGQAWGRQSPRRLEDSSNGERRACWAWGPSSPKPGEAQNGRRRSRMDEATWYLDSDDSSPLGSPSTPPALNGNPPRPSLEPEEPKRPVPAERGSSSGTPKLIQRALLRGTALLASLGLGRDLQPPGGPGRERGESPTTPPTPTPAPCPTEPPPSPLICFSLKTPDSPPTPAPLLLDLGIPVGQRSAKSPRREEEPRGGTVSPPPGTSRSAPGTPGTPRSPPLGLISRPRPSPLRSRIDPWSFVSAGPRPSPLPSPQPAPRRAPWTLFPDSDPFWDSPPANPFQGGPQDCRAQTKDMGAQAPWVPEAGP
Assay type: biochemical
Method: After a twenty minute incubation, the reactions were washed through filter plates and read on a scintillation counter. Results are shown in Table 9 below, in which +++ indicates ≤0.1 μM, ++ indicates >0.1 μM and ≤1 μM, and + indicates >1 μM.
Work on `COc1cc(-c2cnc3[nH]c(=O)n(-c4ccc5[nH]ccc5c4)c3n2)ccc1OCCN1CCOCC1` [Example 57, 1-(1H-indol-5-yl)-6-(3-methoxy-4-(2-morpholinoethoxy)phenyl)-1H-imidazo[4,5-b]pyrazin-2(3H)-one] yielded an IC50 of less than 0.1 µM. In the case of `COc1cc(-c2cnc3c(c2)C(=Cc2ccc(C#N)cc2)C(=O)N3)cc(OC)c1OC` [Example 133, 4-[2-oxo-5-(3,4,5-trimethoxy-phenyl)-1,2-dihydro-pyrrolo[2,3-b]pyridin-3-ylidenemethyl]-benzonitrile], the IC50 is reported as greater than 1 µM. With `COC(=O)N1CCN(Cc2ccc(-c3cnc4[nH]cc(-c5ccc6[nH]ccc6c5)c4c3)cc2)CC1` [Example 194] the IC50 was less than 0.1 µM. `Cc1cc(C)cc(-c2cnc3[nH]c(=O)n(-c4ccc5c(ccn5C)c4)c3n2)c1` [Example 43, 6-(3,5-dimethylphenyl)-1-(1-methyl-1H-indol-5-yl)-1H-imidazo[4,5-b]pyrazin-2(3H)-one] gave an IC50 greater than 1 µM. With `COc1cc(-c2cnc3[nH]c(=O)n(-c4ccc5[nH]c(C)cc5c4)c3n2)cc(OC)c1OC` [Example 72, 1-(2-methyl-1H-indol-5-yl)-6-(3,4,5-trimethoxyphenyl)-1H-imidazo[4,5-b]pyrazin-2(3H)-one] the IC50 was less than 0.1 µM. In the case of `O=c1[nH]c2ncc(-c3ccncc3)nc2n1C1CCCC1` [Example 77, 1-cyclopentyl-6-(pyridin-4-yl)-1H-imidazo[4,5-b]pyrazin-2(3H)-one], the IC50 is reported as greater than 1 µM. With `CN1CCN(Cc2ccc(-c3cnc4[nH]cc(-c5ccc6nccc(O)c6c5)c4c3)cc2)CC1` [Example 177] the IC50 was less than 0.1 µM. `CN1CCN(Cc2ccc(-c3cnc4[nH]cc(-c5ccc(F)cc5)c4c3)cc2)CC1` [Example 169] was tested, and the IC50 was greater than 1 µM. In the case of `COc1cc(-c2cnc3[nH]cc(-c4ccc5[nH]ccc5c4)c3n2)ccc1OCCN1CCOCC1` [Example 39, 4-(2-(4-(7-(1H-indol-5-yl)-5H-pyrrolo[3,2-b]pyrazin-2-yl)-2-methoxyphenoxy)ethyl)morpholine], the IC50 is reported as less than 0.1 µM. In the case of `COc1ccc(-n2c(=O)[nH]c3ncc(-c4ccc(O)cc4)nc32)cc1` [Example 70, 6-(4-hydroxyphenyl)-1-(4-methoxyphenyl)-1H-imidazo[4,5-b]pyrazin-2(3H)-one], the IC50 is reported as greater than 1 µM. `COCCC(=O)N1CCN(Cc2ccc(-c3cnc4[nH]cc(-c5ccc6[nH]ccc6c5)c4c3)cc2)CC1` [Example 202] showed an IC50 of less than 0.1 µM. `O=C1CCC(C(=O)N2CCN(Cc3ccc(-c4cnc5[nH]cc(-c6ccc7[nH]ccc7c6)c5c4)cc3)CC2)N1` (centres unmarked) [Example 205] showed an IC50 of less than 0.1 µM. `COc1cc(-c2cnc3c(c2)C(=Cc2cccc(C(N)=O)c2)C(=O)N3)cc(OC)c1OC` [Example 132, 3-[2-oxo-5-(3,4,5-trimethoxy-phenyl)-1,2-dihydro-pyrrolo[2,3-b]pyridin-3-ylidenemethyl]-benzamide] was tested, and the IC50 was greater than 1 µM. `Nc1ccc(-c2cnc3[nH]c(=O)n(C4CCCC4)c3n2)cn1` [Example 117, 6-(6-aminopyridin-3-yl)-1-cyclopentyl-1H-imidazo[4,5-b]pyrazin-2(3H)-one] showed an IC50 greater than 1 µM. Work on `CN1CCN(Cc2ccc(-c3cnc4[nH]cc(-c5ccc(C(N)=O)cc5)c4c3)cc2)CC1=O` [Example 158, 4-{5-[4-(4-methyl-3-oxo-piperazin-1-ylmethyl)-phenyl]-1H-pyrrolo[2,3-b]pyridin-3-yl}-benzamide] yielded an IC50 of less than 0.1 µM. `COc1cc(OC)cc(-c2cnc3[nH]c(=O)n(-c4ccc5[nH]ccc5c4)c3n2)c1` [Example 65, 6-(3,5-dimethoxyphenyl)-1-(1H-indol-5-yl)-1H-imidazo[4,5-b]pyrazin-2(3H)-one] showed an IC50 greater than 1 µM. Compound `COc1cc(-c2cnc3[nH]cc(-c4ccc(C(N)=O)cc4)c3c2)cc(OC)c1OC` [Example 25, 4-(5-(3,4,5-trimethoxyphenyl)-1H-pyrrolo[2,3-b]pyridin-3-yl)benzamide] has an IC50 of less than 0.1 µM. `O=C(CCO)N1CCN(Cc2ccc(-c3cnc4[nH]cc(-c5ccc6[nH]ccc6c5)c4c3)cc2)CC1` [Example 201] was tested, and the IC50 was less than 0.1 µM. In the case of `COc1cc(-c2cnc3[nH]c(=O)n(C4CCc5ccccc54)c3n2)cc(OC)c1OC` (centres unmarked) [Example 101, 1-(2,3-dihydro-1H-inden-1-yl)-6-(3,4,5-trimethoxyphenyl)-1H-imidazo[4,5-b]pyrazin-2(3H)-one], the IC50 is reported as greater than 1 µM. Compound `COc1cc(-c2cnc3[nH]cc(-c4ccc(NC(C)=O)cc4)c3c2)cc(OC)c1OC` [Example 16, N-(4-(5-(3,4,5-trimethoxyphenyl)-1H-pyrrolo[2,3-b]pyridin-3-yl)phenyl)acetamide] has an IC50 of less than 0.1 µM. In the case of `COc1cc(-c2cnc3[nH]c(=O)n(-c4ccc5cc[nH]c5c4)c3n2)cc(OC)c1OC` [Example 113, 1-(1H-indol-6-yl)-6-(3,4,5-trimethoxyphenyl)-1H-imidazo[4,5-b]pyrazin-2(3H)-one], the IC50 is reported as less than 0.1 µM. In the case of `COc1cc(-c2cnc3ncn(-c4ccc5[nH]ccc5c4)c3n2)cc(OC)c1OC` [Example 126, 1-(1H-indol-5-yl)-6-(3,4,5-trimethoxyphenyl)-1H-imidazo[4,5-b]pyrazine], the IC50 is reported as greater than 1 µM. For `COc1cc(-c2cnc3c(c2)C(Cc2ccncc2)C(=O)N3)cc(OC)c1OC` (centres unmarked) [Example 136, 3-pyridin-4-ylmethyl-5-(3,4,5-trimethoxy-phenyl)-1,3-dihydro-pyrrolo[2,3-b]pyridin-2-one], the IC50 was greater than 1 µM. `COc1cc(-c2cnc3[nH]cc(-c4ccc(CNC(C)=O)cc4)c3c2)cc(OC)c1OC` [Example 159, N-{4-[5-(3,4,5-Trimethoxy-phenyl)-1H-pyrrolo[2,3-b]pyridin-3-yl]-benzyl}-acetamide] gave an IC50 of less than 0.1 µM. Compound `O=c1[nH]c2ncc(-c3cc(Cl)cc(Cl)c3)nc2n1-c1ccc2[nH]ccc2c1` [Example 48, 6-(3,5-dichlorophenyl)-1-(1H-indol-5-yl)-1H-imidazo[4,5-b]pyrazin-2(3H)-one] has an IC50 greater than 1 µM. `O=c1[nH]c2ncc(-c3ccncc3)nc2n1-c1ccc2scnc2c1` [Example 98, 1-(benzo[d]thiazol-5-yl)-6-(pyridin-4-yl)-1H-imidazo[4,5-b]pyrazin-2(3H)-one] gave an IC50 greater than 1 µM. `CCC(=O)N1CCN(Cc2ccc(-c3cnc4[nH]cc(-c5ccc6[nH]ccc6c5)c4c3)cc2)CC1` [Example 197] gave an IC50 of less than 0.1 µM. `CN1CCN(Cc2ccc(-c3c[nH]c4ncc(-c5ccc(C(N)=O)cc5)cc34)cc2)CC1` [Example 162, 4-{3-[4-(4-methyl-piperazin-1-ylmethyl)-phenyl]-1H-pyrrolo[2,3-b]pyridin-5-yl}-benzamide] showed an IC50 of less than 0.1 µM. `O=c1[nH]c2ncc(-c3ccncc3)nc2n1-c1ccc2[nH]ccc2c1` [Example 44, 1-(1H-indol-5-yl)-6-(pyridin-4-yl)-1H-imidazo[4,5-b]pyrazin-2(3H)-one] was tested, and the IC50 was greater than 1 µM. With `CN1CCN(Cc2cccc(-c3cnc4[nH]cc(-c5ccc6[nH]ccc6c5)c4c3)c2)CC1=O` [Example 143, 4-{3-[3-(1H-indol-5-yl)-1H-pyrrolo[2,3-b]pyridin-5-yl]-benzyl}-1-methyl-piperazin-2-one] the IC50 was less than 0.1 µM.

Same assay, conditions: read-out: MK3 IC50
In the case of `CN1CCN(Cc2ccc(-c3cnc4[nH]c(=O)n(-c5ccc6[nH]ccc6c5)c4n3)cc2)CC1` [Example 212, 1-(1H-Indol-5-yl)-6-[4-(4-methyl-piperazin-1-ylmethyl)-phenyl]-1,3-dihydro-imidazo[4,5-b]pyrazin-2-one], the IC50 is reported as 0.1 to 1 µM. `COc1ccc(-c2c[nH]c3ncc(-c4ccc(CN5CCN(C)CC5)cc4)cc23)cc1` [Example 171] gave an IC50 of 0.1 to 1 µM.
